target: T1, human Fatty Acid Synthase (Homo sapiens, UniProt P49327); assay: Human FAS enzyme assay (decrease in NADPH fluorescence); format: biochemical; conditions: % inhibition at a concentration of 100 micromolar
T1 construct: made in house
Description: The compounds of the present invention are Fatty Acid Synthase inhibitors. […] Human and Rat FAS Enzyme Assay.
Fatty acid synthase is an enzyme complex that harbours seven enzymatic activities catalysing the reductive synthesis of long chain fatty acids from acetyl CoA and malonyl CoA to palmitate. When acetyl CoA and malonyl CoA are forming palmitate NADPH is consumed forming NADP. Since NADPH is fluorescent but not NADP the reaction can be measured by analysing the decrease in fluorescence.
Compounds were added to a black 384 well plate (Matrix) in a volume of 5 μl consisting of 20% DMSO and 80% Tris buffer pH 7.5, at a top concentration of 1 mM. NADPH, 30 μl of 166.6 μM, formulated in assay buffer (0.1M Tris ph7.5, 0.1 mM EDTA, 1 mM glutathione, 0.05% BSA), was then added to all of the wells of the plate. Fatty acid synthase Human or rat enzyme (0.4 μg, produced in house), dissolved in 20 mM Tris/HCl pH 7.5, 5 mM BOG, 1 mM TCEP, 10% glycerol, 1 mM EDTA, 150 mM NaCl, was then added to the plate in a volume of […]. Enzyme was added to all but the last two columns of the plate, to which, 10 μl of assay buffer was added (0.1M Tris ph7.5, 0.1 mM EDTA, 1 mM glutathione, 0.05% BSA) to provide a no enzyme assay control. Following a 15-minute incubation period, at room temperature, the plates were read on an Envision plate reader using 340 nm excitation and 460 nm emission filters. This served as a time zero background read. Substrates (an equal mix of both malonyl and acetyl CoA) were then added to the plates in a total volume of 5 μl. The concentrations of malonyl and acetyl CoA in the mixture were 500 μM and 150 μM respectively. Both were prepared as 10 mM stock solutions in distilled water and were subsequently diluted to working concentrations in assay buffer. Plates were then incubated for a further 60 minutes, at room temperature, before being read again on the Envision reader using the same parameters as previously used. The data was analysed by subtracting the background time zero data from that generated following the final 60 minute incubate and the percent inhibition compared to the maximum and minimum assay controls was determined. Sigmoid curves were fitted using Origin 7.5 Client software and IC50 values were determined.

T1 sequence (P49327 whole entry): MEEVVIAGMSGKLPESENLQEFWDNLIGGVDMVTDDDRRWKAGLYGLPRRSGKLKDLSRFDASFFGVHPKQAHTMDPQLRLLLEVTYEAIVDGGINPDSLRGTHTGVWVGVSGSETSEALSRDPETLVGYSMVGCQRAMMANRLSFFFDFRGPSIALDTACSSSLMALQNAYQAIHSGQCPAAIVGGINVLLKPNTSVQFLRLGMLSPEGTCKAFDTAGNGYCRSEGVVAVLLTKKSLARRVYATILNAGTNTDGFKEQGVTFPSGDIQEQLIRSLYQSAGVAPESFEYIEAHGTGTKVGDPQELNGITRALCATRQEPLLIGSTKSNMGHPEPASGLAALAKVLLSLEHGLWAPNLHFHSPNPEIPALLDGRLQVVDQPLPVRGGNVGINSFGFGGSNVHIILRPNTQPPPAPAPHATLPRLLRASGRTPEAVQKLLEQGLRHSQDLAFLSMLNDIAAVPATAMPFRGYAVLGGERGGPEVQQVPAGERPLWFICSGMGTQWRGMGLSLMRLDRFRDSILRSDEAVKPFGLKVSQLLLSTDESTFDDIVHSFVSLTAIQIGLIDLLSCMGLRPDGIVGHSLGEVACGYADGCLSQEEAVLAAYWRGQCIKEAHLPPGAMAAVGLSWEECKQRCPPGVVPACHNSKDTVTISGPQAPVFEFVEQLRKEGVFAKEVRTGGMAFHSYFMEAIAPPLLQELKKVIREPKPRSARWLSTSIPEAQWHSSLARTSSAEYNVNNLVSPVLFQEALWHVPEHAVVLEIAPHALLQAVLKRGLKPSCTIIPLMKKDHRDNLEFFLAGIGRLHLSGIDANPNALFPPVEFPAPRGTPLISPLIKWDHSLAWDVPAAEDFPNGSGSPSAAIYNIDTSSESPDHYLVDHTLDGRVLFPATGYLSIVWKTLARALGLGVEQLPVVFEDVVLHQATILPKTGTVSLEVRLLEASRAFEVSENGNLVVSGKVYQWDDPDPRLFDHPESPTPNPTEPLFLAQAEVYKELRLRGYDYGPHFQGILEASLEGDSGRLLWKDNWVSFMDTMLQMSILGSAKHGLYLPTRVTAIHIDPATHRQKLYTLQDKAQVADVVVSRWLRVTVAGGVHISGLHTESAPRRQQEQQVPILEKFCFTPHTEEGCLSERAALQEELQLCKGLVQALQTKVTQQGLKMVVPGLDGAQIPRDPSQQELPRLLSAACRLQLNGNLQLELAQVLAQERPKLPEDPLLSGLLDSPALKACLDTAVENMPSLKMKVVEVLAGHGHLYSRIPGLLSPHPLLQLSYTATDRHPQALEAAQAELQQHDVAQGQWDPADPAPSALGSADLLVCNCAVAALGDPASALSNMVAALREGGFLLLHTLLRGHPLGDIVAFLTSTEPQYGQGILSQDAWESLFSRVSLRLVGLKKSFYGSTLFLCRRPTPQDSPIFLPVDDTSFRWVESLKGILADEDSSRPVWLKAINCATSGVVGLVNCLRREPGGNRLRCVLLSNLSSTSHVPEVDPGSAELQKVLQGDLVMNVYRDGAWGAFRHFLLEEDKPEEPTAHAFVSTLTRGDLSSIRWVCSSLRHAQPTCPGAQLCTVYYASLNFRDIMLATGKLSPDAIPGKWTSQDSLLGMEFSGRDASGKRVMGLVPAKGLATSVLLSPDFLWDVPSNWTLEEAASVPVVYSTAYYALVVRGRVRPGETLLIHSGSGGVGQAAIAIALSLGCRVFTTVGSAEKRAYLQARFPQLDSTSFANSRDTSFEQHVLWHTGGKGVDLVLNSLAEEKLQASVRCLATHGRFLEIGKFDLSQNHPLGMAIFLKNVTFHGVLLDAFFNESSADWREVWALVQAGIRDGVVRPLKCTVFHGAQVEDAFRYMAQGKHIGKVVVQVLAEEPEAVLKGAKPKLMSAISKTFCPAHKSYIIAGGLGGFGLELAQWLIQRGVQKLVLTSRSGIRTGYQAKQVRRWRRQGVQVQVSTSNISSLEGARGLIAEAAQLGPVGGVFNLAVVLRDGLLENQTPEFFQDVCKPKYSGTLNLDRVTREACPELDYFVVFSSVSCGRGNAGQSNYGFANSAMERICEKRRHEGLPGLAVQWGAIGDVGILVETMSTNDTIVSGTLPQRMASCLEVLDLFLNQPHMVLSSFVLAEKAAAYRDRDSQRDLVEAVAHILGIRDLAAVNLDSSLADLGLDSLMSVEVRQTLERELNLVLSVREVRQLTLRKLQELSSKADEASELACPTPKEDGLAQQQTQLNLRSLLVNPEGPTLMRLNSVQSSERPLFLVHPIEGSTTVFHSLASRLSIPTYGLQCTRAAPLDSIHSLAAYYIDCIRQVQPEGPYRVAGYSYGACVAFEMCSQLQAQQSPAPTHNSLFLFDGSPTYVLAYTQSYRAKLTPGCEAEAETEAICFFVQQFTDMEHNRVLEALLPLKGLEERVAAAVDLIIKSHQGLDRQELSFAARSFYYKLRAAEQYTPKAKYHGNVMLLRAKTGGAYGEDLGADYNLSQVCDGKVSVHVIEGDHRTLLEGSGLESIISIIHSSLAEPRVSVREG

How did the inhibition at 100 µM turn out when `COCc1ccc(C(=O)N2CCC(c3ccc(C#N)cc3)CC2)cc1NS(C)(=O)=O` [Example 161, N-[5-[4-(4-cyanophenyl)piperidine-1-carbonyl]-2-(methoxymethyl)phenyl]methanesulfonamide] was run?
The inhibition at 100 µM was 80%.

`Cc1ccc(C(=O)N2CCC(c3ccc(C(N)=O)cc3)CC2)cc1NS(C)(=O)=O` [Example 112, 4-[1-(3-methanesulfonamido-4-methyl-benzoyl)-4-piperidyl]benzamide] was tested. Which inhibition at 100 µM did it give?
The inhibition at 100 µM was 79%.

How did the inhibition at 100 µM turn out when `Cc1ccc(C(=O)N2CCC(c3ccc(C#N)cc3)CC2)cc1NS(=O)(=O)CCNS(=O)(=O)C(C)C` [Example 80, N-[2-[[5-[4-(4-cyanophenyl)piperidine-1-carbonyl]-2-methyl-phenyl]sulfamoyl]ethyl]propane-2-sulfonamide] was run?
The inhibition at 100 µM was 90%.

With `CSc1ccc(C(=O)N2CCC(c3ccc(C#N)cc3)CC2)cc1NS(=O)(=O)Cc1ccccc1` [Example 160, N-[5-[4-(4-cyanophenyl)piperidine-1-carbonyl]-2-methylsulfanylphenyl]-1-phenylmethanesulfonamide] as the compound, how does the inhibition at 100 µM read?
The inhibition at 100 µM was 89%.

How did the inhibition at 100 µM turn out when `Cc1ccc(C(=O)N2CCC(c3ccc(C#N)cc3)CC2)cc1NS(=O)(=O)CCCCl` [Example 9, 3-chloro-N-[5-[4-(4-cyanophenyl)piperidine-1-carbonyl]-2-methyl-phenyl]propane-1-sulfonamide] was run?
The inhibition at 100 µM was 95%.

`COc1ccc(NS(=O)(=O)Cc2ccccc2)cc1C(=O)N1CCC(c2ccc(C#N)cc2)CC1` [Example 31, N-[3-[4-(4-cyanophenyl)piperidine-1-carbonyl]-4-methoxy-phenyl]-1-phenyl-methanesulfonamide] was tested. Which inhibition at 100 µM did it give?
Its inhibition at 100 µM is 83%.

With `Cc1ccc(NS(=O)(=O)Cc2ccccc2F)cc1C(=O)N1CCC(c2ccc(C#N)cc2)CC1` [Example 51, N-[3-[4-(4-cyanophenyl)piperidine-1-carbonyl]-4-methyl-phenyl]-1-(2-fluorophenyl)methanesulfonamide] as the compound, how does the inhibition at 100 µM read?
The inhibition at 100 µM was 94%.

For `Cc1ccc(C(=O)N2CCC(c3ccc(C#N)cc3)CC2)cc1NS(=O)(=O)CCc1ccccc1` [Example 202, N-[5-[4-(4-cyanophenyl)piperidine-1-carbonyl]-2-methylphenyl]-2-phenylethanesulfonamide], which inhibition at 100 µM is on record?
Its inhibition at 100 µM is 90%.

`Cc1ccc(C(=O)N2CCC(c3ccc(C#N)cc3)CC2)cc1NS(=O)(=O)c1ccc(C#N)cc1` [Example 23, 4-cyano-N-[5-[4-(4-cyanophenyl)piperidine-1-carbonyl]-2-methyl-phenyl]benzenesulfonamide] was tested. Which inhibition at 100 µM did it give?
Its inhibition at 100 µM is 89%.

With `Cc1ccc(NS(=O)(=O)c2ccccc2)cc1C(=O)N1CCC(c2ccc(C#N)cc2)CC1` [Example 35, N-[3-[4-(4-cyanophenyl)piperidine-1-carbonyl]-4-methyl-phenyl]benzenesulfonamide] as the compound, how does the inhibition at 100 µM read?
Its inhibition at 100 µM is 89%.

How did the inhibition at 100 µM turn out when `Cc1cc(C)c(C(=O)N2CCC(c3ccc(C#N)cc3)CC2)cc1NS(C)(=O)=O` [Example 28, N-[5-[4-(4-cyanophenyl)piperidine-1-carbonyl]-2,4-dimethyl-phenyl]methanesulfonamide] was run?
Its inhibition at 100 µM is 93%.

Which inhibition at 100 µM does the source give for `Cc1ccc(C(=O)N2CCC(c3ccc(C#N)cc3)CC2)cc1NS(=O)(=O)c1ccccc1` [Example 10, N-[5-[4-(4-cyanophenyl)piperidine-1-carbonyl]-2-methyl-phenyl]benzenesulfonamide] here?
Its inhibition at 100 µM is 78%.

`CCCCOc1ccc(S(=O)(=O)Nc2cc(C(=O)N3CCC(c4ccc(C#N)cc4)CC3)ccc2C)cc1` [Example 24, 4-butoxy-N-[5-[4-(4-cyanophenyl)piperidine-1-carbonyl]-2-methyl-phenyl]benzenesulfonamide] was tested. Which inhibition at 100 µM did it give?
Its inhibition at 100 µM is 83%.

For `Cc1ccc(C(=O)N2CCC(c3ccc(C(=O)N(C)C)cc3)CC2)cc1NS(=O)(=O)Cc1ccccc1` [Example 204, 4-[1-[3-(benzylsulfonylamino)-4-methylbenzoyl]piperidin-4-yl]-N,N-dimethylbenzamide], which inhibition at 100 µM is on record?
Its inhibition at 100 µM is 78%.

`Cc1ccc(C(=O)N2CCC(c3ccc(C#N)cc3)CC2)cc1NS(=O)(=O)CCCN1CCOCC1` [Example 67, N-[5-[4-(4-cyanophenyl)piperidine-1-carbonyl]-2-methyl-phenyl]-3-morpholin-4-yl-propane-1-sulfonamide] was tested. Which inhibition at 100 µM did it give?
The inhibition at 100 µM was 92%.

`CC(=O)Nc1ccc(S(=O)(=O)Nc2cc(C(=O)N3CCC(c4ccc(C#N)cc4)CC3)ccc2C)cc1` [Example 22, N-[4-[[5-[4-(4-cyanophenyl)piperidine-1-carbonyl]-2-methyl-phenyl]sulfamoyl]phenyl]acetamide] was tested. Which inhibition at 100 µM did it give?
Its inhibition at 100 µM is 95%.

Which inhibition at 100 µM does the source give for `Cc1ccc(C(=O)N2CCC(c3ccc(C#N)cc3)CC2)cc1NS(=O)(=O)c1ccc2c(c1)CC(=O)N2` [Example 129, N-[5-[4-(4-cyanophenyl)piperidine-1-carbonyl]-2-methyl-phenyl]-2-oxo-1,3-dihydroindole-5-sulfonamide] here?
The inhibition at 100 µM was 95%.

How did the inhibition at 100 µM turn out when `Cc1ccc(C(=O)N2CCC(c3ccc(C#N)cc3)CC2)cc1NS(=O)(=O)CC(=O)O` [Example 130, 2-[[5-[4-(4-cyanophenyl)piperidine-1-carbonyl]-2-methyl-phenyl]sulfamoyl]acetic acid] was run?
Its inhibition at 100 µM is 77%.

With `Cc1ccc(C(=O)N2CCC(c3ccc([S+](C)[O-])cc3)CC2)cc1NS(C)(=O)=O` (stereo not drawn) [Example 182, N-[2-methyl-5-[4-(4-methylsulfinylphenyl)piperidine-1-carbonyl]phenyl]methanesulfonamide] as the compound, how does the inhibition at 100 µM read?
The inhibition at 100 µM was 80%.

With `Cc1ccc(C(=O)N2CCC(c3ccc(-c4cnccn4)cc3)CC2)cc1NS(C)(=O)=O` [Example 174, N-[2-methyl-5-[4-(4-pyrazin-2-ylphenyl)piperidine-1-carbonyl]phenyl]methanesulfonamide] as the compound, how does the inhibition at 100 µM read?
Its inhibition at 100 µM is 92%.

How did the inhibition at 100 µM turn out when `CCCC(C)S(=O)(=O)Nc1ccc(C)c(C(=O)N2CCC(c3ccc(C#N)cc3)CC2)c1` (stereo not drawn) [Example 59, N-[3-[4-(4-cyanophenyl)piperidine-1-carbonyl]-4-methyl-phenyl]pentane-2-sulfonamide] was run?
Its inhibition at 100 µM is 89%.

How did the inhibition at 100 µM turn out when `CCCCS(=O)(=O)Nc1cc(C(=O)N2CCC(c3ccc(C#N)cc3)CC2)ccc1C` [Example 12, N-[5-[4-(4-cyanophenyl)piperidine-1-carbonyl]-2-methyl-phenyl]butane-1-sulfonamide] was run?
Its inhibition at 100 µM is 90%.

How did the inhibition at 100 µM turn out when `Cc1ccc(C(=O)N2CCC(c3ccc(C#N)cc3)CC2)cc1NS(=O)(=O)CCCNC(C)C` [Example 73, N-[5-[4-(4-cyanophenyl)piperidine-1-carbonyl]-2-methyl-phenyl]-3-(propan-2-ylamino)propane-1-sulfonamide] was run?
The inhibition at 100 µM was 94%.

same assay, conditions: compounds excluded from the claims by proviso

With `Cc1ccc(C(=O)N2CCC(c3ccc(C#N)c(C#N)c3)CC2)cc1NS(C)(=O)=O` [N-[5-[4-(3,4-dicyanophenyl)piperidine-1-carbonyl]-2-methylphenyl]methanesulfonamide] as the compound, how does the “IC50s in the range of about 0.001 μM to about 30 μM” value (“IC50s in the range” for short) read?
Its value is “do not have IC50s in the range of about 0.001 μM to about 30 μM”.

With `CS(=O)(=O)Nc1cc(C(=O)N2CCC(c3ccc(C#N)cc3)CC2)ccc1OC(F)(F)F` [N-[5-[4-(4-cyanophenyl)piperidine-1-carbonyl]-2-(trifluoromethoxy)phenyl]methanesulfonamide] as the compound, how does the “IC50s in the range” value read?
The value was “do not have IC50s in the range of about 0.001 μM to about 30 μM”.

With `Cc1ccc(C(=O)N2CCC(c3ccc(C#CC(C)(C)N)cc3)CC2)cc1NS(C)(=O)=O` [N-[5-[4-[4-(3-amino-3-methylbut-1-ynyl)phenyl]piperidine-1-carbonyl]-2-methylphenyl]methanesulfonamide] as the compound, how does the “IC50s in the range” value read?
Its value is “do not have IC50s in the range of about 0.001 μM to about 30 μM”.

`COc1ccc(CNC(=O)c2ccccc2S(=O)(=O)Nc2cc(C(=O)N3CCC(c4ccc(C#N)cc4)CC3)ccc2C)c(OC)c1` [2-[[5-[4-(4-cyanophenyl)piperidine-1-carbonyl]-2-methylphenyl]sulfamoyl]-N-[(2,4-dimethoxyphenyl)methyl]benzamide] was tested. Which “IC50s in the range” value did it give?
The value was “do not have IC50s in the range of about 0.001 μM to about 30 μM”.

For `Cc1ccc(C(=O)N2CCC(c3ccc(C#N)cc3C)CC2)cc1NS(C)(=O)=O` [N-[5-[4-(4-cyano-2-methylphenyl)piperidine-1-carbonyl]-2-methylphenyl]methanesulfonamide], which “IC50s in the range” value is on record?
The value was “do not have IC50s in the range of about 0.001 μM to about 30 μM”.

For `CS(=O)(=O)Nc1ccc(F)c(C(=O)N2CCC(c3ccc(C#N)cc3)CC2)c1` [N-[3-[4-(4-cyanophenyl)piperidine-1-carbonyl]-4-fluorophenyl]methanesulfonamide], which “IC50s in the range” value is on record?
The value was “do not have IC50s in the range of about 0.001 μM to about 30 μM”.

For `Cc1ccc(C(=O)N2CCC(c3ccc(C#N)cc3)CC2)cc1NS(=O)(=O)C1CCN(C(=O)OCc2ccccc2)C1` (stereo not drawn) [Benzyl 3-[[5-[4-(4-cyanophenyl)piperidine-1-carbonyl]-2-methylphenyl]sulfamoyl]pyrrolidine-1-carboxylate], which “IC50s in the range” value is on record?
Its value is “do not have IC50s in the range of about 0.001 μM to about 30 μM”.
